The values that follow come from patent publication EP0923548B1, “4-A[…] AS DOPAMIN D2 AGONISTS AND AS 5HT 1A LIGANDS” (Wyeth, priority 1996, dated 1998).

This experiment addresses T1, dopamine autoreceptor (Rattus norvegicus, UniProt P61169).
T1 construct: homogenized rat striatal brain tissue; from tissue; host or cells: rat striatal brain tissue homogenate
The experiment can be described thus: Dopamine autoreceptor affinity, 3H-quinpirole binding in homogenized rat striatal brain tissue. The settings on record: for Ratio ant/agonist: ratio of D2 Spiper IC50 to D2 Quin. IC50 (LowAg/HighAg, predicts intrinsic activity). The protocol: Affinity for the dopamine autoreceptor was established by a modification of the standard experimental test procedure of Seemen and Schaus, European Journal of Pharmacology 203, 105-109 (1991), wherein homogenized rat striatal brain tissue is incubated with ^3H-quinpirole (Quin.)and various concentrations of test compound, filtered and washed and counted in a Betaplate scintillation counter.

T1 sequence (P61169 whole entry): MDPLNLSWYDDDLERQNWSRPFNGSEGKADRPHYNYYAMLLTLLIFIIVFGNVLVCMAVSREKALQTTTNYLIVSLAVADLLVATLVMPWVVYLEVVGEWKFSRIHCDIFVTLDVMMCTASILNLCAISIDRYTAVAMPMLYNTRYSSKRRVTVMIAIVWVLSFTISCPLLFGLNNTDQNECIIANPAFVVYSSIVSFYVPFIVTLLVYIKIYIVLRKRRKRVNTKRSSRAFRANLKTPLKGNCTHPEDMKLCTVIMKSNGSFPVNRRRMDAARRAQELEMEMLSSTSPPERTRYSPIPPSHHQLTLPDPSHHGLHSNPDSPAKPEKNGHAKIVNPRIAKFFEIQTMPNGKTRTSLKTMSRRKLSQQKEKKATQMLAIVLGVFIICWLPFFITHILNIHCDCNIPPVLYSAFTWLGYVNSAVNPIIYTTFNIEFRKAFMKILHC

Turning to `Clc1c[nH]c2cccc(OCCNCCCCc3ccccc3)c12` [(2a), [2-(3-Chloro-1H-indol-4-yloxy)-ethyl]-(4-phenyl-butyl)-amine], the IC50 is 9.55 nM and the Ratio ant/agonist was 20.
On to `Clc1ccc(OCCNCc2ccccc2)c2cc[nH]c12` [(1b), Benzyl-[2-(7-chloro-1H-indol-4-yloxy)-ethyl]-amine], for which the IC50 was found to be 14.9 nM and the Ratio ant/agonist was 12.
As to `Clc1ccc(OCCNCc2ccccc2)c2c(Cl)c[nH]c12` [(1c), Benzyl-[2-(3,7-dichloro-1H-indol-4-yloxy)-ethyl]-amine], the IC50 was found to be 13.6 nM and the Ratio ant/agonist was 21.
For `Clc1ccc(OCCNCc2cccs2)c2c(Cl)c[nH]c12` [(1f), Thien-2-ylmethyl-[2-(3,7-dichloro-1H-indol-4-yloxy)-ethyl]-amine], the IC50 stood at 22.5 nM and the Ratio ant/agonist was 18.
In the same order, the values of `c1ccc(CNCCOc2cccc3[nH]ccc23)cc1` [(3b), N-Benzyl-[2-(1H-indol-4-yloxy)]-ethylamine] are 19.4 nM and 26.
In the same order, the values of `O=C(c1c[nH]c2cccc(OCCNCc3ccccc3)c12)C(F)(F)F` [(3a), 1-[4-(2-Benzylamino-ethoxy)-1H-indol-3-yl]-2,2,2-trifluoro-ethanone] are 5.93 nM and 48.
In the same order, the values of `c1ccc(CCCCNCCOc2cccc3[nH]ccc23)cc1` [(1a), [2-(1H-Indol-4-yloxy)-ethyl]-(4-phenyl-butyl)-amine] are 10.5 nM and 18.

The IC50 is the concentration at which inhibition is half-maximal. Read a high IC50 as a need for much substance.
